Measured values published in US9499550B2 (BRISTOL-MYERS SQUIBB COMPANY, priority 2012, dated 2016).
Read-outs that look alike come from different tables or passages of the source.

Legend:
[1] = system: HCV genotype 1a (H77 strain) replicon in HUH-7 cells; assay: HCV replicon luciferase reporter assay, genotype 1a; type: cell-based; details: Hepatitis C virus, Huh-7, 72 h, HCV genotype 1a replicon luciferase, 3 days incubation, read-out: LE_1a (EC50, range)
Procedure, shortened: (§1)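 Replicon inhibition for both genotypes was measured as Renilla luciferase signal (EnduRen, 7.5 μM final, 2 h) after 3-day, 37° C exposure of replicon-bearing HUH-7 cells in 4% FCS DMEM, 0.5% DMSO. The 1b construct carries S1179I; the 1a H77 construct carries P1496L and S2204I. Twenty-point, 3-fold dilutions were fitted four-parametrically for EC50, and CC50 was taken from multiplexed Cell Titer-Blue.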

[2] = system: HCV genotype 1b (Con1) replicon in HUH-7 cells; assay: HCV replicon luciferase reporter assay, genotype 1b; type: cell-based; details: Hepatitis C virus, Huh-7, 72 h, HCV genotype 1b replicon luciferase, 3 days incubation, read-out: LE_1b (EC50, range)
Procedure, shortened: as §1

SMILES | EC50 [1] | EC50 [2] | EC50 ([1]; GETYPE1A) | EC50 ([2]; GETYPE1B)
COc1cnc(O[C@@H]2C[C@H]3C(=O)N[C@]4(C(=O)NS(=O)(=O)C5(CO)CC5)C[C@H]4/C=C\CC[C@H](C)C[C@@H](C)[C@H](NC(=O)OC(C)(C)C)C(=O)N3C2)c2ccccc12 [Compound 4115, tert-butyl (2R,6S,7R,9S,13aS,14aR,16aS,Z)-14a-(1-(hydroxymethyl)cyclopropylsulfonylcarbamoyl)-2-(4-methoxyisoquinolin-1-yloxy)-7,9-dimethyl-5,16-dioxo-1,2,3,5,6,7,8,9,10,11,13a,14,14a,15,16,16a-hexadecahydrocyclopropa[e]pyrrolo[1,2-a][1,4]diazacyclopentadecin-6-ylcarbamate] | < 5.46 nM | < 5.46 nM |  | 
COc1cc2c(OC)cnc(O[C@@H]3C[C@H]4C(=O)N[C@]5(C(=O)NS(=O)(=O)C6(CF)CC6)C[C@H]5/C=C\CC[C@@H](C)C[C@@H](C)[C@H](NC(=O)C(C)(C)C)C(=O)N4C3)c2cc1F [Compound 4116, (2R,6S,7R,9R,13aS,14aR,16aS,Z)-2-(7-fluoro-4,6-dimethoxyisoquinolin-1-yloxy)-N-(1-(fluoromethyl)cyclopropylsulfonyl)-7,9-dimethyl-5,16-dioxo-6-pivalamido-1,2,3,5,6,7,8,9,10,11,13a,14,14a,15,16,16a-hexadecahydrocyclopropa[e]pyrrolo[1,2-a][1,4]diazacyclopentadecine-14a-carboxamide] | < 5.46 nM | < 5.46 nM |  | 
COc1cc2c(OC)cnc(O[C@@H]3C[C@H]4C(=O)N[C@]5(C(=O)NS(=O)(=O)C6(CF)CC6)C[C@H]5/C=C\CC[C@@H](C)C[C@@H](C)[C@H](NC(=O)c5c(F)cc(F)cc5F)C(=O)N4C3)c2cc1F [Compound 4117, (2R,6S,7R,9R,13aS,14aR,16aS,Z)-2-(7-fluoro-4,6-dimethoxyisoquinolin-1-yloxy)-N-(1-(fluoromethyl)cyclopropylsulfonyl)-7,9-dimethyl-5,16-dioxo-6-(2,4,6-trifluorobenzamido)-1,2,3,5,6,7,8,9,10,11,13a,14,14a,15,16,16a-hexadecahydrocyclopropa[e]pyrrolo[1,2-a][1,4]diazacyclopentadecine-14a-carboxamide] | < 5.46 nM | < 5.46 nM |  | 
COc1cc2c(OC)cnc(O[C@@H]3C[C@H]4C(=O)N[C@]5(C(=O)NS(=O)(=O)C6(CF)CC6)C[C@H]5/C=C\CC[C@@H](C)C[C@@H](C)[C@H](NC(=O)c5ccc(F)cc5F)C(=O)N4C3)c2cc1F [Compound 4118, (2R,6S,7R,9R,13aS,14aR,16aS,Z)-6-(2,4-difluorobenzamido)-2-(7-fluoro-4,6-dimethoxyisoquinolin-1-yloxy)-N-(1-(fluoromethyl)cyclopropylsulfonyl)-7,9-dimethyl-5,16-dioxo-1,2,3,5,6,7,8,9,10,11,13a,14,14a,15,16,16a-hexadecahydrocyclopropa[e]pyrrolo[1,2-a][1,4]diazacyclopentadecine-14a-carboxamide] | < 5.46 nM | < 5.46 nM |  | 
COc1cc2c(OC)cnc(O[C@@H]3C[C@H]4C(=O)N[C@]5(C(=O)NS(=O)(=O)C6(CF)CC6)C[C@H]5/C=C\CC[C@@H](C)C[C@@H](C)[C@H](NC(=O)C5(C(F)(F)F)CC5)C(=O)N4C3)c2cc1F [Compound 4119, (2R,6S,7R,9R,13aS,14aR,16aS,Z)-2-(7-fluoro-4,6-dimethoxyisoquinolin-1-yloxy)-N-(1-(fluoromethyl)cyclopropylsulfonyl)-7,9-dimethyl-5,16-dioxo-6-(1-(trifluoromethyl)cyclopropanecarboxamido)-1,2,3,5,6,7,8,9,10,11,13a,14,14a,15,16,16a-hexadecahydrocyclopropa[e]pyrrolo[1,2-a][1,4]diazacyclopentadecine-14a-carboxamide] | < 5.46 nM | < 5.46 nM |  | 
COc1ccc2c(O[C@@H]3C[C@H]4C(=O)N[C@]5(C(=O)NS(=O)(=O)C6(CF)CC6)C[C@H]5/C=C\CC[C@@H](C)C[C@@H](C)[C@H](NC(=O)OC(C)(C)C(F)(F)F)C(=O)N4C3)ncc(N3CCOCC3)c2c1 [Compound 4120] | < 5.46 nM | < 5.46 nM |  | 
COc1cc2c(OC)cnc(O[C@@H]3C[C@H]4C(=O)N[C@]5(C(=O)NS(=O)(=O)C6(CO)CC6)C[C@H]5/C=C\CC[C@@H](C)C[C@@H](C)[C@H](NC(=O)OC(C)(C)C)C(=O)N4C3)c2cc1F [Compound 4122, tert-butyl (2R,6S,7R,9R,13aS,14aR,16aS,Z)-2-(7-fluoro-4,6-dimethoxyisoquinolin-1-yloxy)-14a-(1-(hydroxymethyl)cyclopropylsulfonylcarbamoyl)-7,9-dimethyl-5,16-dioxo-1,2,3,5,6,7,8,9,10,11,13a,14,14a,15,16,16a-hexadecahydrocyclopropa[e]pyrrolo[1,2-a][1,4]diazacyclopentadecin-6-ylcarbamate] | < 5.46 nM | < 5.46 nM |  | 
COc1cc2c(OC)cnc(O[C@@H]3C[C@H]4C(=O)N[C@]5(C(=O)NS(=O)(=O)C6(CO)CC6)C[C@H]5/C=C\CC[C@H](C)C[C@@H](C)[C@H](NC(=O)OC(C)(C)C)C(=O)N4C3)c2cc1F [Compound 4123, tert-butyl (2R,6S,7R,9S,13aS,14aR,16aS,Z)-2-(7-fluoro-4,6-dimethoxyisoquinolin-1-yloxy)-14a-(1-(hydroxymethyl)cyclopropylsulfonylcarbamoyl)-7,9-dimethyl-5,16-dioxo-1,2,3,5,6,7,8,9,10,11,13a,14,14a,15,16,16a-hexadecahydrocyclopropa[e]pyrrolo[1,2-a][1,4]diazacyclopentadecin-6-ylcarbamate] | 4.82 to 103 nM | 4.82 to 103 nM |  | 
COc1ccc2c(O[C@@H]3C[C@H]4C(=O)N[C@]5(C(=O)NS(=O)(=O)C6(Cl)CC6)C[C@H]5/C=C\CC[C@@H](C)C[C@@H](C)[C@H](NC(=O)OC(C)(C)C(F)(F)F)C(=O)N4C3)ncc(OC)c2c1 [Compound 4124] |  |  | < 5.46 nM | < 5.46 nM
COc1ccc2c(O[C@@H]3C[C@H]4C(=O)N[C@]5(C(=O)NS(=O)(=O)C6(Cl)CC6)C[C@H]5/C=C\CC[C@@H](C)C[C@@H](C)[C@H](NC(=O)OC(C)(C)C)C(=O)N4C3)ncc(OC)c2c1 [Compound 4125, tert-butyl (2R,6S,7R,9R,13aS,14aR,16aS,Z)-14a-(1-chlorocyclopropylsulfonylcarbamoyl)-2-(4,6-dimethoxyisoquinolin-1-yloxy)-7,9-dimethyl-5,16-dioxo-1,2,3,5,6,7,8,9,10,11,13a,14,14a,15,16,16a-hexadecahydrocyclopropa[e]pyrrolo[1,2-a][1,4]diazacyclopentadecin-6-ylcarbamate] | < 5.46 nM | < 5.46 nM |  | 
CCC1(S(=O)(=O)NC(=O)[C@@]23C[C@H]2/C=C\CC[C@H](C)C[C@@H](C)[C@H](NC(=O)OC(C)(C)C(F)(F)F)C(=O)N2C[C@H](Oc4nccc5cc(OC)c(F)cc45)C[C@H]2C(=O)N3)CC1 [Compound 4126] |  |  | < 5.46 nM | < 5.46 nM
CCC1(S(=O)(=O)NC(=O)[C@@]23C[C@H]2/C=C\CC[C@@H](C)C[C@@H](C)[C@H](NC(=O)OC(C)(C)C(F)(F)F)C(=O)N2C[C@H](Oc4nccc5cc(OC)c(F)cc45)C[C@H]2C(=O)N3)CC1 [Compound 4127] |  |  | 4.82 to 103 nM | < 5.46 nM
COc1ccc2c(O[C@@H]3C[C@H]4C(=O)N[C@]5(C(=O)NS(=O)(=O)C6(CF)CC6)C[C@H]5/C=C\CC[C@@H](C)C[C@@H](C)[C@H](NC(=O)OC(C)(C)C(F)(F)F)C(=O)N4C3)nc(-c3ccc(OC(C)C)cc3)cc2c1 [Compound 4128] |  |  | < 5.46 nM | < 5.46 nM
COc1cnc(O[C@@H]2C[C@H]3C(=O)N[C@]4(C(=O)NS(=O)(=O)C5(CF)CC5)C[C@H]4/C=C\CC[C@@H](C)C[C@@H](C)[C@H](NC(=O)OC(C)(C)C(F)(F)F)C(=O)N3C2)c2cccc(Cl)c12 [Compound 4129] |  |  | < 5.46 nM | < 5.46 nM
C[C@@H]1CC/C=C\[C@@H]2C[C@@]2(C(=O)NS(=O)(=O)C2(CF)CC2)NC(=O)[C@@H]2C[C@@H](Oc3cnc4ccccc4n3)CN2C(=O)[C@@H](NC(=O)OC(C)(C)C)[C@H](C)C1 [Compound 4130, tert-butyl (2R,6S,7R,9R,13aS,14aR,16aS,Z)-14a-(1-(fluoromethyl)cyclopropylsulfonylcarbamoyl)-7,9-dimethyl-5,16-dioxo-2-(quinoxalin-2-yloxy)-1,2,3,5,6,7,8,9,10,11,13a,14,14a,15,16,16a-hexadecahydrocyclopropa[e]pyrrolo[1,2-a][1,4]diazacyclopentadecin-6-ylcarbamate] | 4.82 to 103 nM | 4.82 to 103 nM |  | 
COc1ccc2c(O[C@@H]3C[C@H]4C(=O)N[C@]5(C(=O)NS(=O)(=O)C6(C)CC6)C[C@H]5/C=C\CC[C@@H](C)C[C@@H](C)[C@H](NC(=O)OC(C)(C)C)C(=O)N4C3)ncc(N3C[C@@H](C)O[C@@H](C)C3)c2c1 [Compound 4131, tert-butyl (2R,6S,7R,9R,13aS,14aR,16aS,Z)-2-(4-((2S,6R)-2,6-dimethylmorpholino)-6-methoxyisoquinolin-1-yloxy)-7,9-dimethyl-14a-(1-methylcyclopropylsulfonylcarbamoyl)-5,16-dioxo-1,2,3,5,6,7,8,9,10,11,13a,14,14a,15,16,16a-hexadecahydrocyclopropa[e]pyrrolo[1,2-a][1,4]diazacyclopentadecin-6-ylcarbamate] | < 5.46 nM | < 5.46 nM |  | 
COc1ccc2c(O[C@@H]3C[C@H]4C(=O)N[C@]5(C(=O)NS(=O)(=O)C6(C)CC6)C[C@H]5/C=C\CC[C@@H](C)C[C@@H](C)[C@H](NC(=O)OC(C)(C)C(F)(F)F)C(=O)N4C3)ncc(N3C[C@@H](C)O[C@@H](C)C3)c2c1 [Compound 4132] |  |  | < 5.46 nM | < 5.46 nM
